Source: ChEMBL document CHEMBL1153790, “Scoring function for DNA-drug docking of anticancer and antiparasitic compounds based on spectral moments of 2D lattice graphs for molecular dynamics trajectories” (2009)

test: Antiproliferative activity against mouse EAC cells assessed as ratio of ID50 of compound to ID50 of 8-methoxypsoralen; assay type: functional, Ehrlich

Structure (SMILES)	Ratio
COc1c2oc(=O)c(C)cc2cc2c(C)coc12	0.89
Cc1oc2cc3oc(=O)ccc3cc2c1C	1.26
Cc1cc2cc3c(C)coc3c(C)c2oc1=O	1.34
Cc1oc2cc3oc(=O)c(C)cc3cc2c1C	1.79
Cc1oc2ccc3ccc(=O)oc3c2c1C	1.47
Cc1cc2cc3c(C)coc3cc2oc1=O	1.01
Cc1cc(=O)oc2nc3occc3cc12	0.14
Cc1oc2nc3oc(=O)ccc3cc2c1C	0.18
Cc1coc2nc3oc(=O)ccc3cc12	0.13
Cc1c(C)c2cc3c(C)coc3cc2oc1=O	0.34
COCc1cc(=O)n(C)c2c1cc(C)c1oc(C)cc12	2.09
Cc1cc(=O)[nH]c2c1cc(C)c1occ(C)c12	4.62
O=C(c1cc2ccc3occc3c2oc1=O)N(CCO)CCO	<0.01
CN1CCN(C(=O)c2cc3ccc4occc4c3oc2=O)CC1	<0.01
O=C(c1ccccc1)c1cc2ccc3occc3c2oc1=O	<0.01
CCN(CC)C(=O)c1cc2ccc3occc3c2oc1=O	<0.01
O=C(NCCO)c1cc2ccc3occc3c2oc1=O	<0.01
CCOCCNC(=O)c1cc2ccc3occc3c2oc1=O	<0.01
CN(C)CCNC(=O)c1cc2ccc3occc3c2oc1=O	<0.01

Structure (SMILES)	Ratio
NC(=O)c1cc2ccc3occc3c2oc1=O	0.05
O=C(c1cc2ccc3occc3c2oc1=O)N1CCOCC1	0.06
O=C(O)c1cc2ccc3occc3c2oc1=O	0.07
CN(C)C(=O)c1cc2ccc3occc3c2oc1=O	0.07
COC(=O)c1cc2ccc3occc3c2oc1=O	0.2
Cc1cc(=O)oc2c1c(C)cc1occ(C)c12	5.78
Cc1cc(=O)[nH]c2c1ccc1occ(C)c12	0.48
Cc1oc2nc3oc(=O)ccc3c(C)c2c1C	0.25
Cc1c(C)c2cc3c(C)coc3nc2oc1=O	0.67
Cc1coc2nc3oc(=O)cc(C)c3cc12	0.68
Cc1coc2nc3oc(=O)ccc3c(C)c12	0.97
Cc1oc2nc3oc(=O)c(C)c(C)c3cc2c1C	1.83
Cc1cc2ccc3occc3c2oc1=O	0.2
Cc1c(C)c2ccc3occ(C)c3c2oc1=O	0.03
Cc1c(C)c2ccc3occc3c2oc1=O	0.35
CCOC(=O)c1cc2ccc3occc3c2oc1=O	0.4
Cc1cc2c(o1)c(C)cc1c(CO)cc(=O)[nH]c12	0.66
Cc1cc(=O)[nH]c2c1cc(C)c1oc(CO)c(C)c12	1.07
Cc1cc2c(o1)c(C)cc1c(C)cc(=O)[nH]c12	1.36

Structure (SMILES)	Ratio
Cc1oc2nc3oc(=O)cc(C)c3cc2c1C	3.66
CC(=O)c1cc2ccc3occc3c2oc1=O	<0.01
COCc1c(C)oc2ccc3c(C)cc(=O)oc3c12	0.6
Cc1coc2cc3oc(=O)cc(CO)c3cc12	2.32
Cc1cc2c(o1)c(C)cc1c(CO)cc(=O)n(C)c12	5.6
Cc1cc(=O)oc2c1ccc1occc12	0.55
Cc1cc2occ(C)c2c2oc(=O)ccc12	5.3
Cc1cc(=O)oc2c1ccc1occ(C)c12	5.75
Cc1oc2c(C)cc3c(C)cc(=O)[nH]c3c2c1C	9.25
Cc1cc2c(ccc3ccc(=O)oc32)o1	0.8
Cc1coc2ccc3ccc(=O)oc3c12	0.81
Cc1oc2ccc3c(C)cc(=O)[nH]c3c2c1C	2.59
Cc1cc2c(ccc3c(C)cc(=O)oc32)o1	1.27
O=c1ccc2ccc3occc3c2o1 [ANGELICIN]	0.55
COc1c2ccoc2cc2oc(=O)ccc12 [BERGAPTEN]	0.66
COc1c2occc2cc2ccc(=O)oc12 [METHOXSALEN]	1
O=c1ccc2cc3ccoc3cc2o1 [PSORALEN]	1.52
Cc1cc2cc3c(C)cc(=O)oc3c(C)c2o1 [TRIOXSALEN]	27.6
